# Reference: patent publication US9499466B2, “Diene-based carboxylate anion and salt thereof, and polymerizable or curable composition thereof” (NIPPON SHOKUBAI CO., LTD., priority 2010, dated 2016)
# Legend:
# [1] = Solubility test (dissolution method); settings: for Solubility (dissolution method) Water: mixed at 1%, 3%, 5%, 10%, 20% or more
# Description: The solubility evaluation by the dissolution method requires complicated operations and a large amount of test sample. Therefore, this test is not suitable for screening. However, the solubility of each compound can be more accurately evaluated.
# [2] = Solubility test (film-forming method); settings: for Solubility (film-forming method) Water: solvent dropped on film on glass plate
# Procedure: Each compound was applied on a glass plate and the glass plate was leaned against the wall. Each solvent shown in Table 5 was dropped (5 to 6 drops) on the glass plate with a pasteur pipette. The glass plate was visually observed after the dropped solvent was dried, the surface was optionally rubbed with a spatula, and the solubility (film-forming method) was evaluated according to the criteria shown in Table 4.
# [3] = Adhesion of cured material to PET film (cross-cut method, JIS K 5600-5-6); settings: UV-cured film on surface-untreated PET film, cross-cut 10×10
# Procedure: Each compound shown in Table 11 was formed into a UV-cured film on a PET film in the same manner as in the pencil hardness test, except that the PET film used as a substrate was a surface-untreated polyethylene terephthalate (PET) film (Lumirror L-50T60, produced by Toray Industries, Inc.).
# The adhesion of the UV-cured film to the PET film was evaluated based on JIS K 5600-5-6 (cross-cut method). The number of divided segments was 10×10 segments=100 segments. The adhesion was evaluated by the number of the segments which remain without peeling or damage in 100 segments.
structure (smiles),measurement,setting,value
C=C(C)C(=O)[O-].C=CCOCC(=C)C(=O)[O-].[CH3][Sn+2][CH3] [(CH3)2Sn(AMA)1(MAA)1],Solubility (dissolution method) Toluene,[1],◯◯ (Become uniform and transparent at a compound concentration of 20% or more)
C=CCOCC(=C)C(=O)[O-].C=CCOCC(=C)C(=O)[O-].C=CCOCC(=C)C(=O)[O-].[Cr+3] [Cr(AMA)3],Solubility (dissolution method) Toluene,[1],◯◯ (Become uniform and transparent at a compound concentration of 20% or more)
same,Solubility (film-forming method) Methanol,[2],X-Δ
"C=CC(=O)OCC(CC)(COC(=O)C=C)COC(=O)C=C [TMPTA, reference compound]",Adhesion (segments remaining without peeling or damage in 100 segments),[3],71/100
same,Solubility (dissolution method) Acetone,[1],◯◯ (Become uniform and transparent at a compound concentration of 20% or more)
same,Solubility (dissolution method) Acetonitrile,[1],◯◯ (Become uniform and transparent at a compound concentration of 20% or more)
same,Solubility (dissolution method) Ethyl acetate,[1],◯◯ (Become uniform and transparent at a compound concentration of 20% or more)
same,Solubility (dissolution method) Methanol,[1],◯◯ (Become uniform and transparent at a compound concentration of 20% or more)
same,Solubility (dissolution method) THF,[1],◯◯ (Become uniform and transparent at a compound concentration of 20% or more)
same,Solubility (dissolution method) Toluene,[1],◯◯ (Become uniform and transparent at a compound concentration of 20% or more)
same,Solubility (dissolution method) Water,[1],X (Not become uniform and transparent even at a compound concentration of 1%)
C=CCOCC(=C)C(=O)[O-].C=CCOCC(=C)C(=O)[O-].C=CCOCC(=C)C(=O)[O-].[Er+3] [Er(AMA)3],Solubility (dissolution method) THF,[1],◯◯ (Become uniform and transparent at a compound concentration of 20% or more)
same,Solubility (dissolution method) Toluene,[1],◯ (Become uniform and transparent at a compound concentration of 10%)
same,Solubility (film-forming method) Water,[2],X-Δ
C=CCOCC(=C)C(=O)[O-].C=CCOCC(=C)C(=O)[O-].[Co+2] [Co(AMA)2],Solubility (dissolution method) Toluene,[1],◯◯ (Become uniform and transparent at a compound concentration of 20% or more)
same,Solubility (film-forming method) Acetonitrile,[2],X-Δ
same,Solubility (film-forming method) Methanol,[2],X-Δ
"C=CC(=O)OCCOCCOC(=O)C=C [DEGDA, reference compound]",Adhesion (segments remaining without peeling or damage in 100 segments),[3],32/100
same,Solubility (dissolution method) Acetone,[1],◯◯ (Become uniform and transparent at a compound concentration of 20% or more)
same,Solubility (dissolution method) Acetonitrile,[1],◯◯ (Become uniform and transparent at a compound concentration of 20% or more)
same,Solubility (dissolution method) Ethyl acetate,[1],◯◯ (Become uniform and transparent at a compound concentration of 20% or more)
same,Solubility (dissolution method) Methanol,[1],◯◯ (Become uniform and transparent at a compound concentration of 20% or more)
same,Solubility (dissolution method) THF,[1],◯◯ (Become uniform and transparent at a compound concentration of 20% or more)
same,Solubility (dissolution method) Toluene,[1],◯◯ (Become uniform and transparent at a compound concentration of 20% or more)
same,Solubility (dissolution method) Water,[1],X-Δ (Become uniform and transparent at a compound concentration of 1%)
C=C(C)COCC(=C)C(=O)[O-].C=C(C)COCC(=C)C(=O)[O-].[Zn+2] [Zn(MAMA)2],Solubility (dissolution method) Toluene,[1],◯◯ (Become uniform and transparent at a compound concentration of 20% or more)
same,Solubility (film-forming method) Water,[2],X-Δ
C=CCOCC(=C)C(=O)[O-].C=CCOCC(=C)C(=O)[O-].C=CCOCC(=C)C(=O)[O-].[Fe+3] [Fe(AMA)3],Solubility (dissolution method) Toluene,[1],◯◯ (Become uniform and transparent at a compound concentration of 20% or more)
same,Solubility (film-forming method) Water,[2],X-Δ
C=CCOCC(=C)C(=O)[O-].C=CCOCC(=C)C(=O)[O-].C=CCOCC(=C)C(=O)[O-].[La+3] [La(AMA)3],Solubility (dissolution method) THF,[1],◯◯ (Become uniform and transparent at a compound concentration of 20% or more)
same,Solubility (dissolution method) Toluene,[1],◯ (Become uniform and transparent at a compound concentration of 10%)
same,Solubility (film-forming method) Water,[2],X-Δ
"C=CC(=O)OCC(C)(C)COC(=O)C=C [NPGDA, reference compound]",Adhesion (segments remaining without peeling or damage in 100 segments),[3],49/100
same,Solubility (dissolution method) Acetone,[1],◯◯ (Become uniform and transparent at a compound concentration of 20% or more)
same,Solubility (dissolution method) Acetonitrile,[1],◯◯ (Become uniform and transparent at a compound concentration of 20% or more)
same,Solubility (dissolution method) Ethyl acetate,[1],◯◯ (Become uniform and transparent at a compound concentration of 20% or more)
same,Solubility (dissolution method) Methanol,[1],◯◯ (Become uniform and transparent at a compound concentration of 20% or more)
same,Solubility (dissolution method) THF,[1],◯◯ (Become uniform and transparent at a compound concentration of 20% or more)
same,Solubility (dissolution method) Toluene,[1],◯◯ (Become uniform and transparent at a compound concentration of 20% or more)
same,Solubility (dissolution method) Water,[1],X (Not become uniform and transparent even at a compound concentration of 1%)
C=CCOCC(=C)C(=O)[O-].C=CCOCC(=C)C(=O)[O-].[Cu+2] [Cu(AMA)2],Solubility (dissolution method) THF,[1],◯◯ (Become uniform and transparent at a compound concentration of 20% or more)
C=CCOCC(=C)C(=O)[O-].C=CCOCC(=C)C(=O)[O-].C=CCOCC(=C)C(=O)[O-].[Bi+3] [Bi(AMA)3],Solubility (film-forming method) Water,[2],X-Δ
C=CCOCC(=C)C(=O)[O-].C=CCOCC(=C)C(=O)[O-].C=CCOCC(=C)C(=O)[O-].[Al+3] [Al(AMA)3],Adhesion (segments remaining without peeling or damage in 100 segments),[3],100/100
C=CCOCC(=C)C(=O)[O-].C=CCOCC(=C)C(=O)[O-].CC(C)[O][Ti+2][O]C(C)C [(i-C3H7O)2Ti(AMA)2],Solubility (dissolution method) Acetone,[1],◯◯ (Become uniform and transparent at a compound concentration of 20% or more)
same,Solubility (dissolution method) Acetonitrile,[1],◯◯ (Become uniform and transparent at a compound concentration of 20% or more)
same,Solubility (dissolution method) Ethyl acetate,[1],◯◯ (Become uniform and transparent at a compound concentration of 20% or more)
same,Solubility (dissolution method) Methanol,[1],◯◯ (Become uniform and transparent at a compound concentration of 20% or more)
same,Solubility (dissolution method) THF,[1],◯◯ (Become uniform and transparent at a compound concentration of 20% or more)
same,Solubility (dissolution method) Toluene,[1],◯◯ (Become uniform and transparent at a compound concentration of 20% or more)
same,Solubility (dissolution method) Water,[1],X (Not become uniform and transparent even at a compound concentration of 1%)
same,Solubility (film-forming method) Acetone,[2],X-Δ
same,Solubility (film-forming method) Acetonitrile,[2],X-Δ
same,Solubility (film-forming method) Ethyl acetate,[2],X-Δ
same,Solubility (film-forming method) Methanol,[2],X-Δ
same,Solubility (film-forming method) THF,[2],X-Δ
same,Solubility (film-forming method) Toluene,[2],X-Δ
C=C(C)C(=O)[O-].C=CCOCC(=C)C(=O)[O-].C=CCOCC(=C)C(=O)[O-].[In+3] [In(AMA)2(MAA)1],Solubility (dissolution method) Toluene,[1],◯◯ (Become uniform and transparent at a compound concentration of 20% or more)
same,Solubility (film-forming method) Methanol,[2],X-Δ
C=C(C)C(=O)[O-].C=CCOCC(=C)C(=O)[O-].[Ni+2] [Ni(AMA)1(MAA)1],Solubility (dissolution method) Toluene,[1],◯◯ (Become uniform and transparent at a compound concentration of 20% or more)
C=CCOCC(=C)C(=O)[O-].C=CCOCC(=C)C(=O)[O-].C=CCOCC(=C)C(=O)[O-].[In+3] [In(AMA)3],Solubility (dissolution method) THF,[1],◯◯ (Become uniform and transparent at a compound concentration of 20% or more)
same,Solubility (film-forming method) Acetone,[2],X-Δ
same,Solubility (film-forming method) Acetonitrile,[2],X-Δ
same,Solubility (film-forming method) Ethyl acetate,[2],X-Δ
same,Solubility (film-forming method) Methanol,[2],X-Δ
C=CCOCC(=C)C(=O)[O-].C=CCOCC(=C)C(=O)[O-].[Mn+2] [Mn(AMA)2],Solubility (dissolution method) Toluene,[1],◯◯ (Become uniform and transparent at a compound concentration of 20% or more)
same,Solubility (film-forming method) Water,[2],X-Δ
C=CCOCC(=C)C(=O)[O-].C=CCOCC(=C)C(=O)[O-].[CH3][Sn+2][CH3] [(CH3)2Sn(AMA)2],Solubility (dissolution method) Toluene,[1],◯◯ (Become uniform and transparent at a compound concentration of 20% or more)
C=CCOCC(=C)C(=O)[O-].C=CCOCC(=C)C(=O)[O-].CCC[O][Zr+2][O]CCC [(n-C3H7O)2Zr(AMA)2],Solubility (dissolution method) Acetone,[1],◯◯ (Become uniform and transparent at a compound concentration of 20% or more)
same,Solubility (dissolution method) Acetonitrile,[1],X (Not become uniform and transparent even at a compound concentration of 1%)
same,Solubility (dissolution method) Ethyl acetate,[1],◯ (Become uniform and transparent at a compound concentration of 10%)
same,Solubility (dissolution method) Methanol,[1],X (Not become uniform and transparent even at a compound concentration of 1%)
same,Solubility (dissolution method) THF,[1],◯◯ (Become uniform and transparent at a compound concentration of 20% or more)
same,Solubility (dissolution method) Toluene,[1],◯◯ (Become uniform and transparent at a compound concentration of 20% or more)
same,Solubility (dissolution method) Water,[1],X (Not become uniform and transparent even at a compound concentration of 1%)
same,Solubility (film-forming method) Acetone,[2],X-Δ
same,Solubility (film-forming method) Acetonitrile,[2],X-Δ
same,Solubility (film-forming method) Ethyl acetate,[2],X-Δ
same,Solubility (film-forming method) Methanol,[2],X-Δ
same,Solubility (film-forming method) THF,[2],X-Δ
same,Solubility (film-forming method) Toluene,[2],X-Δ
C=CCOCC(=C)C(=O)[O-].C=CCOCC(=C)C(=O)[O-].C=CCOCC(=C)C(=O)[O-].[Eu+3] [Eu(AMA)3],Solubility (dissolution method) THF,[1],◯◯ (Become uniform and transparent at a compound concentration of 20% or more)
same,Solubility (dissolution method) Toluene,[1],◯ (Become uniform and transparent at a compound concentration of 10%)
C=CCOCC(=C)C(=O)[O-].C=CCOCC(=C)C(=O)[O-].C=CCOCC(=C)C(=O)[O-].[Au+3] [Au(AMA)3],Solubility (film-forming method) Toluene,[2],X-Δ
